ChEMBL document CHEMBL3997765 (Medchemcomm, 2016)

Key:
[1] = target: Dual specificity tyrosine-phosphorylation-regulated kinase 3 (Homo sapiens) (UniProt O43781); test: Inhibition of full length recombinant human GST-tagged DYRK3 expressed in baculovirus expression system at 10 uM by Z'-LYTE assay relative to control
[2] = target: Ephrin type-A receptor 2 (Homo sapiens) (UniProt P29317); test: Inhibition of recombinant human GST-tagged EPHA2 cytoplasmic domain (560 to 976 residues) expressed in baculovirus expression system at 10 uM by Z'-LYTE assay relative to control
Ephrin type-A receptor 2 (Homo sapiens), sequence (P29317 whole entry, the tested form may be a part): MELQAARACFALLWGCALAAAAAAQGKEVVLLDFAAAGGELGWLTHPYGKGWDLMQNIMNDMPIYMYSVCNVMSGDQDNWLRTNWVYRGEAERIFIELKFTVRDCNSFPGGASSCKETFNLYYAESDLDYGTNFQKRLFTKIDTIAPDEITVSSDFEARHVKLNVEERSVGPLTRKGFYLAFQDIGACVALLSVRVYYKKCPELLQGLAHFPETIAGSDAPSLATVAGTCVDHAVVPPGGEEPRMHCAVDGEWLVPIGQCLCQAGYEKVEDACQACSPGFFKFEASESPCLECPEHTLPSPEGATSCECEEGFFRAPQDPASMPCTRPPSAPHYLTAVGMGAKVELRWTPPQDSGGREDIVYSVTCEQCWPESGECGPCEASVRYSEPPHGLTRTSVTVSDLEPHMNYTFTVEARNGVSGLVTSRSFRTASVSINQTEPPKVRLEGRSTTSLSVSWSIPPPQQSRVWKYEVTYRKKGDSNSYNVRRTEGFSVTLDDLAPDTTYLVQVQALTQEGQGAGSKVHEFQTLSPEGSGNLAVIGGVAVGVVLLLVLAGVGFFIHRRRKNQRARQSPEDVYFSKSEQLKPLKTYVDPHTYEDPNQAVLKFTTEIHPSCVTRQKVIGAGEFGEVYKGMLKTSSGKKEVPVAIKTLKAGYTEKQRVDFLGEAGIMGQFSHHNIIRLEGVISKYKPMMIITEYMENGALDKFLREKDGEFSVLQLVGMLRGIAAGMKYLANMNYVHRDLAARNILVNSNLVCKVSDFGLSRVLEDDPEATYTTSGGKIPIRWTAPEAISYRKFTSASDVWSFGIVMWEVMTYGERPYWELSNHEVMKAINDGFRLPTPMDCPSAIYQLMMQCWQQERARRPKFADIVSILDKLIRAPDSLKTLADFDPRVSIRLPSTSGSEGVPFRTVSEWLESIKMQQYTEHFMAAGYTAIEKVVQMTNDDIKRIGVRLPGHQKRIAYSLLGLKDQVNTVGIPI

[3] = target: Platelet-derived growth factor receptor beta (Homo sapiens) (UniProt P09619); test: Inhibition of recombinant human His-tagged PDGFRbeta cytoplasmic domain (558 to 1106 residues) expressed in baculovirus expression system at 10 uM by Z'-LYTE assay relative to control
[4] = target: T1, Mitogen-activated protein kinase 14 (Homo sapiens, UniProt Q16539); test: Inhibition of full length recombinant human GST-tagged p38alpha expressed in Escherichia coli at 10 uM using Ser/Thr04 peptide as substrate in presence of inactive MAPKAPK2 after 1 hr by FRET assay relative to control
T1 sequence (Q16539 whole entry): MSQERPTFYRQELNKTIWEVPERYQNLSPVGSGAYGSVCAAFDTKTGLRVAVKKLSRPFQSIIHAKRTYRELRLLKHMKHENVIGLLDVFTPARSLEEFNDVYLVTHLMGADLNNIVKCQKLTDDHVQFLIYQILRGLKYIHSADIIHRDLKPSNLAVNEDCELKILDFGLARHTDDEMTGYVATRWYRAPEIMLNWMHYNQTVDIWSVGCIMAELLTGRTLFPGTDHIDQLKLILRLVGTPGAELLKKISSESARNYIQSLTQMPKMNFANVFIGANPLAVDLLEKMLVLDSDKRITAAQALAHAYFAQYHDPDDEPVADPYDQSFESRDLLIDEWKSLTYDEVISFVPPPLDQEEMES

[5] = target: Serine/threonine-protein kinase Chk1 (Homo sapiens) (UniProt O14757); test: Inhibition of full length recombinant human His-tagged CHK1 expressed in baculovirus expression system at 10 uM by Z'-LYTE assay relative to control
[6] = target: Insulin receptor (Homo sapiens) (UniProt P06213); test: Inhibition of recombinant human GST-tagged INSR cytoplasmic domain (1011 to 1382 residues) expressed in baculovirus expression system at 10 uM by Z'-LYTE assay relative to control
[7] = target: RAC-alpha serine/threonine-protein kinase (Homo sapiens) (UniProt P31749); test: Inhibition of full length recombinant human His-tagged PKBalpha expressed in baculovirus expression system at 10 uM by Z'-LYTE assay relative to control
[8] = target: Proto-oncogene tyrosine-protein kinase Src (Homo sapiens) (UniProt P12931); test: Inhibition of recombinant human C-terminal His-tagged SRC cytoplasmic domain expressed in baculovirus expression system at 10 uM by Z'-LYTE assay relative to control
[9] = target: Hepatocyte growth factor receptor (Homo sapiens) (UniProt P08581); test: Inhibition of recombinant human His-tagged MET cytoplasmic domain (956 to 1390 residues) expressed in baculovirus expression system at 10 uM by Z'-LYTE assay relative to control
[10] = target: T1, Mitogen-activated protein kinase 14; test: Inhibition of full length recombinant human GST-tagged p38alpha expressed in Escherichia coli at 10 uM by Z'-LYTE assay relative to control
[11] = target: Fibroblast growth factor receptor 1 (Homo sapiens) (UniProt P11362); test: Inhibition of recombinant human His-tagged FGFR1 cytoplasmic domain (308 to 731 residues) expressed in baculovirus expression system at 10 uM by Z'-LYTE assay relative to control
[12] = target: Dual specificity mitogen-activated protein kinase kinase 1 (Homo sapiens) (UniProt Q02750); test: Inhibition of full length recombinant human His-tagged MEK1 expressed in baculovirus expression system at 10 uM by Z'-LYTE assay relative to control
[13] = target: High affinity nerve growth factor receptor (Homo sapiens) (UniProt P04629); test: Inhibition of recombinant human His-tagged TRKA cytoplasmic domain (441 to 796 residues) expressed in baculovirus expression system at 10 uM by Z'-LYTE assay relative to control
High affinity nerve growth factor receptor (Homo sapiens), sequence (P04629 33-796 limits assumed): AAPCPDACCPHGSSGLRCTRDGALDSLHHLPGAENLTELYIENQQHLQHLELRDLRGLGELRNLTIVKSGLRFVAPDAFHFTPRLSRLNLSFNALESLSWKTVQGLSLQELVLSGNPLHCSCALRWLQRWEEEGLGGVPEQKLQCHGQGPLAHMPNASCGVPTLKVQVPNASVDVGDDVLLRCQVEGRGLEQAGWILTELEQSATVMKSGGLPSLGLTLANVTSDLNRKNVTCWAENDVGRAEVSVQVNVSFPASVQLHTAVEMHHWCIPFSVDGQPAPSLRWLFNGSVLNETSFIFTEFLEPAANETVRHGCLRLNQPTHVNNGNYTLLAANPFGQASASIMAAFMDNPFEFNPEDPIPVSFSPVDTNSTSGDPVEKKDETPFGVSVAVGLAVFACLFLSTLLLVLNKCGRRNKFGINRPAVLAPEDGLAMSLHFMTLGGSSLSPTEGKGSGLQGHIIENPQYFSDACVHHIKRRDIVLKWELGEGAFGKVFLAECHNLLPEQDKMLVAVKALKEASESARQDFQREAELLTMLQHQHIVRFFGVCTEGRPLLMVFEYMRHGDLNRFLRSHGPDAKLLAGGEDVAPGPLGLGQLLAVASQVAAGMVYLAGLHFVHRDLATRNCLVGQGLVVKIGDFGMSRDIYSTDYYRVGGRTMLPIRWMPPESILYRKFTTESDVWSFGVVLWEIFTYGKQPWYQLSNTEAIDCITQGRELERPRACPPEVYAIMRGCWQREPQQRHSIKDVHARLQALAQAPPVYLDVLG

[14] = target: Mast/stem cell growth factor receptor Kit (Homo sapiens) (UniProt P10721); test: Inhibition of KIT (unknown origin) at 10 uM by Z'-LYTE assay relative to control
Mast/stem cell growth factor receptor Kit (Homo sapiens), sequence (P10721 whole entry): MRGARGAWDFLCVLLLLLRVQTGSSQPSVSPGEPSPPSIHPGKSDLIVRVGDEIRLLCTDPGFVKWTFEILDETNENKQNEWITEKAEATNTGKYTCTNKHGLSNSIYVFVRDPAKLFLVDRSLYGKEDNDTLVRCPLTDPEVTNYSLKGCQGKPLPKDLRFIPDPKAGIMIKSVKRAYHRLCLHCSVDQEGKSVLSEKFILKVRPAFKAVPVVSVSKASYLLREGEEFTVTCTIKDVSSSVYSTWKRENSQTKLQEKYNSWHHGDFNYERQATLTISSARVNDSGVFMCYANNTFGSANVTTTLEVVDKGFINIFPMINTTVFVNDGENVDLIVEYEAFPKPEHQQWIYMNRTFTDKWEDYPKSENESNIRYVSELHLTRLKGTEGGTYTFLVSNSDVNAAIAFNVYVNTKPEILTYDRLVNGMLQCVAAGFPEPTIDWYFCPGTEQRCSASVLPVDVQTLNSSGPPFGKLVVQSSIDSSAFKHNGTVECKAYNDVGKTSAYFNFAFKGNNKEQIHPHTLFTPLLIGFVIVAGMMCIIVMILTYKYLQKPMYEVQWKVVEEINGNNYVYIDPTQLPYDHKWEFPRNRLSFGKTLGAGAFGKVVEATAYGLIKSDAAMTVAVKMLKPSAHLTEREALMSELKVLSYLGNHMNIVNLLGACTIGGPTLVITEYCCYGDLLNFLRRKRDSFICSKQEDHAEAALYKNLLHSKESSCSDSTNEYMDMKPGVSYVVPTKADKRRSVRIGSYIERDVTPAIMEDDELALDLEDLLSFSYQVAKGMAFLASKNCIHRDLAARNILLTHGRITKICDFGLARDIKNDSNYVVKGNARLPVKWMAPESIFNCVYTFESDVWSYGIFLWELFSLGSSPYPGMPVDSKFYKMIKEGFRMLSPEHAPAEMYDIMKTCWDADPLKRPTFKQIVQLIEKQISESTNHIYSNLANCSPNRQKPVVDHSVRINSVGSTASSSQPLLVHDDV

[15] = target: Glycogen synthase kinase-3 beta (Homo sapiens) (UniProt P49841); test: Inhibition of full length recombinant human His-tagged GSK3beta expressed in baculovirus expression system at 10 uM by Z'-LYTE assay relative to control
[16] = target: Aurora kinase A (Homo sapiens) (UniProt O14965); test: Inhibition of full length recombinant human His-tagged Aurora A expressed in baculovirus expression system at 10 uM by Z'-LYTE assay relative to control
[17] = target: Mitogen-activated protein kinase kinase kinase kinase 4 (Homo sapiens) (UniProt O95819); test: Inhibition of recombinant human GST-tagged HGK catalytic domain (1 to 328 residues) expressed in baculovirus expression system at 10 uM by Z'-LYTE assay relative to control
[18] = target: Casein kinase II subunit alpha (Homo sapiens) (UniProt P68400); test: Inhibition of full length recombinant human His-tagged CK2alpha1 expressed in baculovirus expression system at 10 uM by Z'-LYTE assay relative to control
Casein kinase II subunit alpha (Homo sapiens), sequence (P68400 whole entry, looked up): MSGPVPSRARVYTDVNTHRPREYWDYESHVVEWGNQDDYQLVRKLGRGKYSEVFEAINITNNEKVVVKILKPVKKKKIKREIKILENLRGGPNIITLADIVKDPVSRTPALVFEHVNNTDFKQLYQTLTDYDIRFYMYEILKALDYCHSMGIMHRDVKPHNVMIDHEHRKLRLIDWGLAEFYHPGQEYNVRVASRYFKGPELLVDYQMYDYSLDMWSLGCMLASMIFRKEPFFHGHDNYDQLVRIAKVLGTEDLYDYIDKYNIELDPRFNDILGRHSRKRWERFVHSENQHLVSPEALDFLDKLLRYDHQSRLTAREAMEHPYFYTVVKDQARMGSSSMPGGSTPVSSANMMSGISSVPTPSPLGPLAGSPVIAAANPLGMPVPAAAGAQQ

[19] = target: Interleukin-1 receptor-associated kinase 4 (Homo sapiens) (UniProt Q9NWZ3); test: Inhibition of full length recombinant human His-tagged IRAK4 expressed in baculovirus expression system at 10 uM by Z'-LYTE assay relative to control
[20] = target: Epidermal growth factor receptor (Homo sapiens) (UniProt P00533); test: Inhibition of recombinant human GST-tagged EGFR cytoplasmic domain (668 to 1210 residues) expressed in baculovirus expression system at 10 uM by Z'-LYTE assay relative to control
[21] = target: Cyclin-dependent kinase 1/cyclin B1 (Homo sapiens) (UniProt P06493+P14635); test: Inhibition of full length recombinant human His-tagged CDK1/Cyclin B expressed in baculovirus expression system at 10 uM by Z'-LYTE assay relative to control
[22] = target: Tyrosine-protein kinase BTK (Homo sapiens) (UniProt Q06187); test: Inhibition of recombinant human His-tagged BTK cytoplasmic domain expressed in baculovirus expression system at 10 uM by Z'-LYTE assay relative to control
Tyrosine-protein kinase BTK (Homo sapiens), sequence (Q06187 whole entry, the tested form may be a part): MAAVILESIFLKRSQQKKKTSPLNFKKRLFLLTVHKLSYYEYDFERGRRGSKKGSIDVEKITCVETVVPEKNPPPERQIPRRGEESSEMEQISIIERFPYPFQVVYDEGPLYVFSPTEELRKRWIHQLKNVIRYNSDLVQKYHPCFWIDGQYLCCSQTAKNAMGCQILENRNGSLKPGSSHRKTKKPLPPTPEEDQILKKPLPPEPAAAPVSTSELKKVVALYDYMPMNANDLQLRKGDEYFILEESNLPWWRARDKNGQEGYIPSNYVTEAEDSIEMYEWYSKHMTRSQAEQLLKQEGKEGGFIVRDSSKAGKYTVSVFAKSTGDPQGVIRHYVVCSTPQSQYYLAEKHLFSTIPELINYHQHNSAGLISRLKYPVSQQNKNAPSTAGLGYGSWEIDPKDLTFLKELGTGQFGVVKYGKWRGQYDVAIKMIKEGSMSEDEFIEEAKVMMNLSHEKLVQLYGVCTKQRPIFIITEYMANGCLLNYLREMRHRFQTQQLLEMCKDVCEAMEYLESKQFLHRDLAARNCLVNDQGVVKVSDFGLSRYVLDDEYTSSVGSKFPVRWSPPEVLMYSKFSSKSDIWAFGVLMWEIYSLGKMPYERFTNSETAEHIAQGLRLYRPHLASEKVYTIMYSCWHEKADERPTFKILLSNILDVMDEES

[23] = target: Tyrosine-protein kinase SYK (Homo sapiens) (UniProt P43405); test: Inhibition of recombinant human N-terminal GST-tagged SYK cytoplasmic domain expressed in baculovirus expression system at 10 uM by Z'-LYTE assay relative to control
[24] = target: Mitogen-activated protein kinase 3 (Homo sapiens) (UniProt P27361); test: Inhibition of full length recombinant human GST-tagged ERK1 expressed in Escherichia coli at 10 uM by Z'-LYTE assay relative to control
Mitogen-activated protein kinase 3 (Homo sapiens), sequence (P27361 whole entry, canonical isoform): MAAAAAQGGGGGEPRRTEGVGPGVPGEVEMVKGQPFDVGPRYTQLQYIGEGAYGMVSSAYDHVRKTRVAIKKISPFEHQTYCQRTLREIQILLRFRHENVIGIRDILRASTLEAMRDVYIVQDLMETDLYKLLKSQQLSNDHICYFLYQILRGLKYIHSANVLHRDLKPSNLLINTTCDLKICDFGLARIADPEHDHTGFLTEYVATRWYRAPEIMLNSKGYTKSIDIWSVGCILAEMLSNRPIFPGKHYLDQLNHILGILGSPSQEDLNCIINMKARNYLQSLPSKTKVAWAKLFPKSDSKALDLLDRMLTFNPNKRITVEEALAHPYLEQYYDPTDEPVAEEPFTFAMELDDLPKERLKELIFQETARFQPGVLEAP

[25] = target: Phosphorylase b kinase gamma catalytic chain, liver/testis isoform (Homo sapiens) (UniProt P15735); test: Inhibition of full length recombinant human GST-tagged PHKG2 expressed in baculovirus expression system at 10 uM relative to control
[26] = target: Tyrosine-protein kinase JAK3 (Homo sapiens) (UniProt P52333); test: Inhibition of recombinant human GST-tagged JAK3 catalytic domain (781 to 1124 residues) expressed in baculovirus expression system at 10 uM by Z'-LYTE assay relative to control
[27] = target: Ribosomal protein S6 kinase beta-1 (Homo sapiens) (UniProt P23443); test: Inhibition of recombinant human GST-tagged p70S6K catalytic domain (1 to 421 residues) expressed in baculovirus expression system at 10 uM relative to control
Ribosomal protein S6 kinase beta-1 (Homo sapiens), sequence (P23443 whole entry, looked up, the tested form may be a part): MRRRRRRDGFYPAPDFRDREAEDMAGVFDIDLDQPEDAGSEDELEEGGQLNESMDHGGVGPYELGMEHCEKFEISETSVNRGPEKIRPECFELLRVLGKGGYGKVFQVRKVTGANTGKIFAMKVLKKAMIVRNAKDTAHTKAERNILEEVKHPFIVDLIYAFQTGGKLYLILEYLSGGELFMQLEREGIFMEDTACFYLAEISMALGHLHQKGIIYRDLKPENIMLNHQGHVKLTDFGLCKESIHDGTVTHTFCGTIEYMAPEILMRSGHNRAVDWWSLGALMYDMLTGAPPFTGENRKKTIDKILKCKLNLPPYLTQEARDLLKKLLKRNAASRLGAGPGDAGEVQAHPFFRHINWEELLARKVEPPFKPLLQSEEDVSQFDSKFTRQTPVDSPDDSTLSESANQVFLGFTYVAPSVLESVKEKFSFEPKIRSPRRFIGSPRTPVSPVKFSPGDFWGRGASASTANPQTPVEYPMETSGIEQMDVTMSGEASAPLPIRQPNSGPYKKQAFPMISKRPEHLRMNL

[28] = target: Tyrosine-protein kinase Lck (Homo sapiens) (UniProt P06239); test: Inhibition of recombinant human C-terminal His-tagged LCK cytoplasmic domain expressed in baculovirus expression system at 10 uM by Z'-LYTE assay relative to control

CC1=Nc2c(Sc3ccccc3)ncnc2Sc2ccccc21 was tested, and the inhibition [1] was 8%, the inhibition [2] was 9% and the inhibition [3] was -1%. It also gave an inhibition [4] of 37%, an inhibition [5] of 3% and an inhibition [6] of 2%. The inhibition [7] was 5%, the inhibition [8] was 3% and the inhibition [9] was 14%. The inhibition [10] was 74%, the inhibition [11] was -4% and the inhibition [12] was 2%. For the same compound, the inhibition [13] was 2%, the inhibition [14] was 3% and the inhibition [15] was 7%. For the same compound, the inhibition [16] was 6%, the inhibition [17] was 15% and the inhibition [18] was 3%. For the same compound, the inhibition [19] was 3%, the inhibition [20] was 1% and the inhibition [21] was 8%. The inhibition [22] was 3%, the inhibition [23] was -3% and the inhibition [24] was 5%. The inhibition [25] was 2%, the inhibition [26] was -1% and the inhibition [27] was 1%. It also gave an inhibition [28] of 10%.
